Data from US10570129B2 (Zoetis Services LLC, priority 2015, dated 2020).

How the values were obtained:
Haemonchus contortus L3 = experiment: microbe, parasite or virus in culture; type: cell-based; settings: Haemonchus contortus, 96 h, read-out: HcL3 Minimal Effective Concentration (MEC)
[1] = tested on: Trichostrongylus colubriformis; experiment: Jird efficacy model; type: in vivo; settings: Trichostrongylus colubriformis, sc, 96 h, read-out: Jird % (percentage efficacy)
D. immitis microfilariae = experiment: Dirofilaria immitis, microfilariae (DiMF) in vitro motility assay; type: cell-based; settings: Dirofilaria immitis, 72 h, read-out: DiMF minimally effective dose (MEC)

SMILES | minimal effective concentration (Haemonchus contortus L3) | inhibition in vivo at 10 mg/kg [1] | minimal effective concentration (D. immitis microfilariae)
N#Cc1ccc(/C=C/CN2CCc3c(c4ccc(C(F)(F)F)cc4n3C(=O)NCc3ccnc(Cl)c3)C2)cc1 [Example 155, (E)-N-((2-chloropyridin-4-yl)methyl)-2-(3-(4-cyanophenyl)allyl)-7-(trifluoromethyl)-1,2,3,4-tetrahydro-5H-pyrido[4,3-b]indole-5-carboxamide] | 1 µM | 100% | 22.6 µM
O=C(NCc1ccnc(Cl)c1)n1c2c(c3cc(Br)ccc31)CN(C/C=C/c1ccc(Cl)cc1)CC2 [Example 185, (E)-8-bromo-2-(3-(4-chlorophenyl)allyl)-N-((2-chloropyridin-4-yl)methyl)-1,2,3,4-tetrahydro-5H-pyrido[4,3-b]indole-5-carboxamide] | 0.7 µM | 100% | 7.7 µM
N#Cc1ccc(/C=C/CN2CCc3c(c4cc(C(F)(F)F)ccc4n3C(=O)NCc3ccnc(F)c3)C2)cc1 [Example 420, (E)-2-(3-(4-cyanophenyl)allyl)-N-((2-fluoropyridin-4-yl)methyl)-8-(trifluoromethyl)-1,2,3,4-tetrahydro-5H-pyrido[4,3-b]indole-5-carboxamide] | 2.8 µM | 100% | 14.1 µM
N#Cc1ccc2c3c(n(C(=O)NCc4ccnc(Cl)c4)c2c1)CCN(C/C=C/c1ccc(Cl)c(Cl)c1)C3 [Example 35, (E)-N-((2-chloropyridin-4-yl)methyl)-7-cyano-2-(3-(3,4-dichlorophenyl)allyl)-1,2,3,4-tetrahydro-5H-pyrido[4,3-b]indole-5-carboxamide] | 3.3 µM | 100% | 33 µM
O=C(NCc1ccnc(F)c1)n1c2c(c3ccc(OC(F)(F)F)cc31)CN(C/C=C/c1ccc(F)cc1F)CC2 [Example 374, (E)-2-(3-(2,4-difluorophenyl)allyl)-N-((2-fluoropyridin-4-yl)methyl)-7-(trifluoromethoxy)-1,2,3,4-tetrahydro-5H-pyrido[4,3-b]indole-5-carboxamide] | 5.7 µM | 72% | 5.7 µM
O=C(NCc1ccnc(Cl)c1)n1c2c(c3ccc(OC(F)(F)F)cc31)CN(C/C=C/c1ccc(F)c(F)c1)CC2 [Example 349, (E)-N-((2-chloropyridin-4-yl)methyl)-2-(3-(3,4-difluorophenyl)allyl)-7-(trifluoromethoxy)-1,2,3,4-tetrahydro-5H-pyrido[4,3-b]indole-5-carboxamide] | 1 µM | 99% | 10 µM
N#Cc1cc(/C=C/CN2CCc3c(c4ccc(OC(F)(F)F)cc4n3C(=O)NCc3ccnc(Cl)c3)C2)ccc1F [Example 344, (E)-N-((2-chloropyridin-4-yl)methyl)-2-(3-(3-cyano-4-fluorophenyl)allyl)-7-(trifluoromethoxy)-1,2,3,4-tetrahydro-5H-pyrido[4,3-b]indole-5-carboxamide] | 0.5 µM | 100% | 10 µM
O=C(NCc1ccnc(Cl)c1)n1c2c(c3cc(F)c(Cl)cc31)CN(C/C=C/c1ccc(F)cc1)CC2 [Example 306, (E)-7-chloro-N-((2-chloropyridin-4-yl)methyl)-8-fluoro-2-(3-(4-fluorophenyl)allyl)-1,2,3,4-tetrahydro-5H-pyrido[4,3-b]indole-5-carboxamide] | 0.5 µM | 98% | 12.7 µM
O=C(NCc1ccnc(Cl)c1)n1c2c(c3cc(Cl)ccc31)CN(C/C=C/c1ccc(F)cc1F)CC2 [Example 238, (E)-8-chloro-N-((2-chloropyridin-4-yl)methyl)-2-(3-(2,4-difluorophenyl)allyl)-1,2,3,4-tetrahydro-5H-pyrido[4,3-b]indole-5-carboxamide] | 1 µM | 100% | 5.7 µM
